Measurements as given in ChEMBL document CHEMBL1201862, “PubChem BioAssay data set” (2004).
Activity calls are given as the source filed them.

How the values were obtained:
HEK293 [1] = assay: HEK293T cell viability loss, resazurin readout – resazurin fluorescence, cytotoxicity control for NF-kB activator project, SAR follow-up (AID 493251); assay type: functional, cell-based; conditions: Homo sapiens
Jurkat = assay: SAR Analysis of small molecule inhibitors of T-cell specific antigen receptor-induced NF-kB activation in a Jurkat cell line using a luminescence assay - Set 2. [Related pubchem assays (depositor defined):AID435003, AID435012, AID465]; assay type: functional, cell-based; conditions: Homo sapiens
HEK293 [2] = assay: SAR Analysis of small molecule inhibitors of T-cell specific antigen receptor-induced NF-kB activation in a HEK-293T cell line using a luminescence assay - Set 2. [Related pubchem assays (depositor defined):AID435003, AID435012, AID489026]; assay type: functional, cell-based; conditions: Homo sapiens
[3] = target: MAP kinase-activated protein kinase 5 (Homo sapiens, UniProt Q8IW41); assay type: functional;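 further: measured as one member of a kinome panel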
[4] = target: Protein-tyrosine kinase 2-beta (Homo sapiens, UniProt Q14289); assay type: functional
[5] = target: Serine/threonine-protein kinase pim-1 (Homo sapiens, UniProt P11309); assay type: functional
Sequence of Serine/threonine-protein kinase pim-1 (P11309 whole entry): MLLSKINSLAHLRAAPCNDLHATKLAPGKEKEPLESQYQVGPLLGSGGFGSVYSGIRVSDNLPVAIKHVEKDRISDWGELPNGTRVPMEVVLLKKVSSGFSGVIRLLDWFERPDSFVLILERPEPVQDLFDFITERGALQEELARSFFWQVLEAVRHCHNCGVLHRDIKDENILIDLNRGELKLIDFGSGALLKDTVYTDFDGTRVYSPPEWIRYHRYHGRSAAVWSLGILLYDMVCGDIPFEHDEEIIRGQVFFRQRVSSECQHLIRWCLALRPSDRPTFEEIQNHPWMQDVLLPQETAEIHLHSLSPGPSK

[6] = target: Dual specificity protein kinase CLK4 (Homo sapiens, UniProt Q9HAZ1); assay type: functional
Sequence of Dual specificity protein kinase CLK4 (Q9HAZ1 whole entry): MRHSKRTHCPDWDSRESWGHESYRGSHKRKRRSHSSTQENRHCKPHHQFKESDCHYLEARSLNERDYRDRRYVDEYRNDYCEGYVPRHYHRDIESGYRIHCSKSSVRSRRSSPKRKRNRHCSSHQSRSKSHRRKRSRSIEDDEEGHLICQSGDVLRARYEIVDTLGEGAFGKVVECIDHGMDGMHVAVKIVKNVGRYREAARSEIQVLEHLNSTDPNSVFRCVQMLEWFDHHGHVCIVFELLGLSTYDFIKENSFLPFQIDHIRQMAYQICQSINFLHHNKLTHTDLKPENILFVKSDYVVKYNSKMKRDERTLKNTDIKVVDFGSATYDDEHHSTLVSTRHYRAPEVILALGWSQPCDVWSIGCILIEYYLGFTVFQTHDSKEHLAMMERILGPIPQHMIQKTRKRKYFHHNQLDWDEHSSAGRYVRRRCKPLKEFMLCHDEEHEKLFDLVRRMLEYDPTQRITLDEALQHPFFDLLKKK

SRSF protein kinase 1 = SRSF protein kinase 1 (Homo sapiens, UniProt Q96SB4); assay type: functional;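 further: measured as one member of a kinome-wide kinase profiling panel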
Sequence of SRSF protein kinase 1 (Q96SB4 whole entry): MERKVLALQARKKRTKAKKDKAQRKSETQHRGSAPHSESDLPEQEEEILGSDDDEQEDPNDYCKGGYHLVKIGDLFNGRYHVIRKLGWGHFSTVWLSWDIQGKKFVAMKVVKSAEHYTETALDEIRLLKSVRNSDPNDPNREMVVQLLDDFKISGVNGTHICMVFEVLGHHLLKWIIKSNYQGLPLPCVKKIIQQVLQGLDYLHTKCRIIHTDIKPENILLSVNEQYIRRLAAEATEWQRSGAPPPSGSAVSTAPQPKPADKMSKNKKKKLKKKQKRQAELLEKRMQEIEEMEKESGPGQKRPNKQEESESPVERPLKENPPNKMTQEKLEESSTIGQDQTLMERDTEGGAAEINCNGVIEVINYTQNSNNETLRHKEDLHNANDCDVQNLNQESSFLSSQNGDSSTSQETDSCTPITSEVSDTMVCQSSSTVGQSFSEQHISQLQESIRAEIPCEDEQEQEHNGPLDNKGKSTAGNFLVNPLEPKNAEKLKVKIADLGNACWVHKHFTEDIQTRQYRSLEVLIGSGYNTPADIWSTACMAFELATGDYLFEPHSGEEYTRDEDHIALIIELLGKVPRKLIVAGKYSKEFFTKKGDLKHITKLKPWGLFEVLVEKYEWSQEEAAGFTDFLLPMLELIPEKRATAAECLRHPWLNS

[7] = target: Tyrosine-protein kinase receptor UFO (Homo sapiens, UniProt P30530); assay type: functional
[8] = THP-1 cell cytotoxicity, cytotoxicity control, set 6 (AID 602433); assay type: functional; conditions: Mycobacterium tuberculosis
[9] = target: Vascular endothelial growth factor receptor 2 (Homo sapiens, UniProt P35968); assay type: functional
Aurora kinase A = Aurora kinase A (Homo sapiens, UniProt O14965); assay type: functional;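 further: value from the Navigating the Kinome kinase panel profiling, panel entry STK6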
Aurora kinase B = Aurora kinase B (Homo sapiens, UniProt Q96GD4); assay type: functional
Sequence of Aurora kinase B (Q96GD4 whole entry): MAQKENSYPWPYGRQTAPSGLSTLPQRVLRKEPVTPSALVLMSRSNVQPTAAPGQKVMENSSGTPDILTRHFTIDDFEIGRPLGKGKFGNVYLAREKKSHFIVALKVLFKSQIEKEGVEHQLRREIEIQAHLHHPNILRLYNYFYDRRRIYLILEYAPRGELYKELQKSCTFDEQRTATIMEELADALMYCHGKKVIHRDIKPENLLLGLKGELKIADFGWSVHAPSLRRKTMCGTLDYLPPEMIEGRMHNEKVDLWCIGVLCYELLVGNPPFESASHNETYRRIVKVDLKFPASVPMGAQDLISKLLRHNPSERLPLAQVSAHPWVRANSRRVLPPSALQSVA

[10] = target: Benomyl/methotrexate resistance protein (Candida albicans, UniProt P28873); assay: Candida albicans Mdr1 pump blockade titration – singleplex, Cherry Pick2 set, dose response (AID 623992); assay type: functional; conditions: read-out: EC50_MICROM
Sequence of Benomyl/methotrexate resistance protein (P28873 whole entry): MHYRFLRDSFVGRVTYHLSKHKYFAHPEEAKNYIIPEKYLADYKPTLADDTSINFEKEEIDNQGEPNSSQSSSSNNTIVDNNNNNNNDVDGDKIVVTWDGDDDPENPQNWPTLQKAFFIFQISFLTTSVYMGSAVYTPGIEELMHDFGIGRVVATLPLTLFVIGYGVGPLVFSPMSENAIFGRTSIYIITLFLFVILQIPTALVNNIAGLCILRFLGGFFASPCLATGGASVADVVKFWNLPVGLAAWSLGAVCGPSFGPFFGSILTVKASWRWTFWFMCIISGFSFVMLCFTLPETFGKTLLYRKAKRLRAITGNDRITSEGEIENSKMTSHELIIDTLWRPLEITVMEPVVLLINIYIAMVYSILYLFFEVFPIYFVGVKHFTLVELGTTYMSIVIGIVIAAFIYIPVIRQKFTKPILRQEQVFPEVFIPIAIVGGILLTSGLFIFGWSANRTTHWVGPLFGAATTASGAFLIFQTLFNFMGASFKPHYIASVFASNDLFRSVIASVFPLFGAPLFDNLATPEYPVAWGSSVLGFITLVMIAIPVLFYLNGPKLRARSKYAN

[11] = target: T1, High affinity choline transporter 1 (Homo sapiens, UniProt Q9GZV3); assay: human choline transporter potentiators, potency – cell-based, 10-point CRC, membrane potential dye, dose response (AID 602376); assay type: functional
T1 sequence (Q9GZV3 whole entry): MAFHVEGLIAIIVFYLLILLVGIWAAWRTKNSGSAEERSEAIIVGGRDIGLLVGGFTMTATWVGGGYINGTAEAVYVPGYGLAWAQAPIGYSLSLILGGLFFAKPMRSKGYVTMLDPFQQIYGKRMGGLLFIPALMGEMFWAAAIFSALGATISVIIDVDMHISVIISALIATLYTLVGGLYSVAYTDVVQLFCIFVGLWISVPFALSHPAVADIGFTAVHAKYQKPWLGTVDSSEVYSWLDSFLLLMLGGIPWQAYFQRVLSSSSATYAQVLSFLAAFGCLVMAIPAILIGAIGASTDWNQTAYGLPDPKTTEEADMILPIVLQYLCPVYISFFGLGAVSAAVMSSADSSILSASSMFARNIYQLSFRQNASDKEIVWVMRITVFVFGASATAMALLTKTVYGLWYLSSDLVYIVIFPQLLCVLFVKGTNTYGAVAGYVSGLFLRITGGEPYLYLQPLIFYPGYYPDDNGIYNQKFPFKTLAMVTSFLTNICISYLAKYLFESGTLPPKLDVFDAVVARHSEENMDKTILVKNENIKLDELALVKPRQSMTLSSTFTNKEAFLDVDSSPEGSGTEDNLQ

[12] = Luminescence Cell-Based Dose Response HTS to Identify Activators of Luciferase Translation or Activity in H4 […] Cells. [Related pubchem assays: 1829 (Project Summary), 1814 (Primary HTS)]; assay type: functional
H4 = assay: Luminescence Cell-Based Dose Response HTS to Identify Activators of 5'UTR Stem-Loop Driven Prion Protein mRNA Translation in H4 Neuroglioblastoma Cells. [Related pubchem assays: 1829 (Project Summary), 1814 (Primary HTS)]; assay type: functional; conditions: Homo sapiens
INS1 = assay: suppression of cytokine-induced beta-cell apoptosis – INS-1E, caspase luminescence, dry powder, beta-cell apoptosis inhibitor project, dose response (AID 488848); assay type: functional, cell-based; conditions: Rattus norvegicus
Candida albicans [13] = assay: resistant Candida growth with fluconazole co-treatment – CaCi-8 strain, Alamar Blue, dry powder, set 2, dose response (AID 488909); assay type: functional, organism-based
Candida albicans [14] = assay: Candida growth reduction in fluconazole presence – CaCi-2 strain, Alamar Blue, dry powder, set 2, antifungal resistance reversal project, dose response (AID 488930); assay type: functional, organism-based
Candida albicans [15] = assay: C. albicans growth inhibition with fluconazole – CaCi-2 strain, Alamar Blue, dry powder, set 4, dose response (AID 488943); assay type: functional, organism-based
Candida albicans [16] = assay: fluconazole-resistant Candida strain growth inhibitors – CaCi-8 strain, dry powder, set 4, dose response (AID 488950); assay type: functional, organism-based
Phospholipase D2 [17] = target: T2, Phospholipase D2 (Homo sapiens, UniProt O14939); assay: cellular phospholipase D2 inhibition IC50 – cell-based, dose response (AID 602147); assay type: functional;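 further: cellular assay in HEK293 cells overexpressing GFP-tagged PLD2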
T2 sequence (O14939 whole entry): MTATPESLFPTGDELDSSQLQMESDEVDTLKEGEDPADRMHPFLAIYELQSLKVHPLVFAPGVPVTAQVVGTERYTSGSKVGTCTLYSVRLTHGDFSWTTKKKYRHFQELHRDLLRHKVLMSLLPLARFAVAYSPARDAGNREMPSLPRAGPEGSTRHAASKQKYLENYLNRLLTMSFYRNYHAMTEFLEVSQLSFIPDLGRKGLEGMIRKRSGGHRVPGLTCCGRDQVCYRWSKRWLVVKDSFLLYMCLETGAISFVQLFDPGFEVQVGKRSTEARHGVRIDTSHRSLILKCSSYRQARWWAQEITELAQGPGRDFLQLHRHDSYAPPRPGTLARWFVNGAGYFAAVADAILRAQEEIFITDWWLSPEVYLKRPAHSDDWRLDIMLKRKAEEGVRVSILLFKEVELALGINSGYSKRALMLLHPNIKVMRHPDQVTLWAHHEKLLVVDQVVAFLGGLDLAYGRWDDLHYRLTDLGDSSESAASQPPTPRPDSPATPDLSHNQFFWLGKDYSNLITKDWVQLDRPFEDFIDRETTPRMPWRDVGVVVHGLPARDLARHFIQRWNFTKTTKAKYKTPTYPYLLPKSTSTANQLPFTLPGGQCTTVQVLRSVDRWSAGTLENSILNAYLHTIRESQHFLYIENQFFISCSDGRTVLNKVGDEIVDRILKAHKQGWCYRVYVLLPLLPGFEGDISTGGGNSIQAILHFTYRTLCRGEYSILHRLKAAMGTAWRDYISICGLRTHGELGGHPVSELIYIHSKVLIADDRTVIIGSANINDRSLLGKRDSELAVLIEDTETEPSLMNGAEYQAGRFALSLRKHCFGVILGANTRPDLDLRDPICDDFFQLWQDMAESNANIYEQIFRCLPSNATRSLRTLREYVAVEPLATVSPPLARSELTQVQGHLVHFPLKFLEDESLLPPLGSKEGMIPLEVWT

Phospholipase D1 = target: T3, Phospholipase D1 (Homo sapiens, UniProt Q13393); assay: PLD1 purified enzyme concentration response. [Related pubchem assays (depositor defined):AID588854]; assay type: functional
T3 sequence (Q13393 whole entry): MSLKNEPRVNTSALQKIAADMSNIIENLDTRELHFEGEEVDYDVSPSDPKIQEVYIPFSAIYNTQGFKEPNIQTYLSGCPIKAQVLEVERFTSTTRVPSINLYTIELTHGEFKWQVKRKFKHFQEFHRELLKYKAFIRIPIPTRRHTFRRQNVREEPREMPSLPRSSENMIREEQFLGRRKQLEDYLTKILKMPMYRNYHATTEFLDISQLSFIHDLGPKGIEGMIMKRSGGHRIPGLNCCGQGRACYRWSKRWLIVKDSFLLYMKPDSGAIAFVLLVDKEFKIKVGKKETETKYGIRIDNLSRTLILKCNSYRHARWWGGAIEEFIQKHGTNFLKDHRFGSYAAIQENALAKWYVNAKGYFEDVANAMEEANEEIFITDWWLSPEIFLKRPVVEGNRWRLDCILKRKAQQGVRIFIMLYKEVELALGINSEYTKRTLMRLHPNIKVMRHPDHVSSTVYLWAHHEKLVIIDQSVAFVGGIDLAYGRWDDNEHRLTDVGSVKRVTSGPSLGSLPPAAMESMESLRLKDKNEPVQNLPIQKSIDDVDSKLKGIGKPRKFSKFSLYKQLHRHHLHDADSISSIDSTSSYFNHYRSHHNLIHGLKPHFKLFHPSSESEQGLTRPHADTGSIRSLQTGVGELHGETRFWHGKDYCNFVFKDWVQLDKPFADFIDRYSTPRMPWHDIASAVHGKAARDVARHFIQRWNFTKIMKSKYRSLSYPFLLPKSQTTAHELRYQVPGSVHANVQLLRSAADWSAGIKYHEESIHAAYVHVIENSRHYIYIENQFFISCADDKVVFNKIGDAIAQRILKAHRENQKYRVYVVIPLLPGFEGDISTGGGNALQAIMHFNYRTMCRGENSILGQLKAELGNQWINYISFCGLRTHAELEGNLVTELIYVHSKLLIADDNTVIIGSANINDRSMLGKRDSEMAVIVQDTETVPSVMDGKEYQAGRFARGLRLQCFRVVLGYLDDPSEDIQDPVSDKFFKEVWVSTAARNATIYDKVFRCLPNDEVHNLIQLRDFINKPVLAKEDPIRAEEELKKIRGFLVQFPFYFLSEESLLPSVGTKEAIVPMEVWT

Phospholipase D2 [18] = target: T2, Phospholipase D2; assay: PLD2 purified enzyme concentration response. [Related pubchem assays (depositor defined):AID588854]; assay type: functional
[19] = target: Cell division cycle 7-related protein kinase (Homo sapiens, UniProt O00311); assay type: functional;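 further: value obtained from a kinome-wide kinase panel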
Sequence of Cell division cycle 7-related protein kinase (O00311 whole entry): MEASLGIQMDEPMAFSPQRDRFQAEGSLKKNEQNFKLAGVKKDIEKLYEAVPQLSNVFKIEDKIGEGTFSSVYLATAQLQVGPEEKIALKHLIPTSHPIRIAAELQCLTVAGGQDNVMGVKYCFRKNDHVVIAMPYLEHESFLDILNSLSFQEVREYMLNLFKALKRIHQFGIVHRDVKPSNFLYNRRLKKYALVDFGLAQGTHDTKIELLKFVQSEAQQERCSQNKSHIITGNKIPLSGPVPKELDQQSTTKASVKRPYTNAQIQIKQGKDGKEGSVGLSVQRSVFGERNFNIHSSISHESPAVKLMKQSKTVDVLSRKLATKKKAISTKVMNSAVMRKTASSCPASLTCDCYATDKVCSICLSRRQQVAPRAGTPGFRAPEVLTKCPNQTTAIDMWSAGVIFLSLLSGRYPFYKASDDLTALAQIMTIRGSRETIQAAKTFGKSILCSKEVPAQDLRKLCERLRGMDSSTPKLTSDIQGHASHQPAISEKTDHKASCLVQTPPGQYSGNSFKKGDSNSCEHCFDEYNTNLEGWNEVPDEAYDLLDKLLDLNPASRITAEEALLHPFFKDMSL

[20] = target: Cyclin-dependent kinase 19 (Homo sapiens, UniProt Q9BWU1); assay: Navigating the Kinome. Panel member name: CDC2L6; assay type: functional
[21] = target: T4, Endoribonuclease toxin MazF (Escherichia coli K-12, UniProt P0AE70); assay: MazEF toxin-antitoxin RNase activation – biochemical, fluorescence, single-stranded RNA substrate, SAR follow-up (AID 588603); assay type: functional
T4 sequence (P0AE70 whole entry): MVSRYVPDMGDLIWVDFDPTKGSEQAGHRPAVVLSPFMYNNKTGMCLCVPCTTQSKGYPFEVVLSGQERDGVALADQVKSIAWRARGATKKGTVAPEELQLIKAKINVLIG

[22] = target: T4, Endoribonuclease toxin MazF; assay: SAR analysis of small molecule activators of the MazEF TA System via a fluorescence-based single-stranded RNase assay counterscreen. [Related pubchem assays (depositor defined):AID504720, AID504743]; assay type: functional
[23] = target: T4, Endoribonuclease toxin MazF; assay: activation of MazEF endoribonuclease cleavage – biochemical, fluorescence, single-stranded RNA substrate, uHTS hits, dose response (AID 588481); assay type: functional
MEF = assay: SAR analysis of small molecule cytotoxicity of MazEF TA System activators in embryonic fibroblast (MEF) cells. [Related pubchem assays (depositor defined):AID504720, AID504743]; assay type: functional; conditions: Mus musculus
[24] = target: T4, Endoribonuclease toxin MazF; assay: substrate-only fluorescence increase artefacts – biochemical, single-stranded RNase substrate, counter-screen for MazEF activator project, dose response (AID 588502); assay type: functional
[25] = target: Serine/threonine-protein kinase pim-3 (Homo sapiens, UniProt Q86V86); assay type: functional;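 further: value obtained as one member of a broad kinase panel profiling effort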
Wee1-like protein kinase = Wee1-like protein kinase (Homo sapiens, UniProt P30291); assay: Navigating the Kinome. Panel member name: WEE1; assay type: functional
Sequence of Wee1-like protein kinase (P30291 whole entry): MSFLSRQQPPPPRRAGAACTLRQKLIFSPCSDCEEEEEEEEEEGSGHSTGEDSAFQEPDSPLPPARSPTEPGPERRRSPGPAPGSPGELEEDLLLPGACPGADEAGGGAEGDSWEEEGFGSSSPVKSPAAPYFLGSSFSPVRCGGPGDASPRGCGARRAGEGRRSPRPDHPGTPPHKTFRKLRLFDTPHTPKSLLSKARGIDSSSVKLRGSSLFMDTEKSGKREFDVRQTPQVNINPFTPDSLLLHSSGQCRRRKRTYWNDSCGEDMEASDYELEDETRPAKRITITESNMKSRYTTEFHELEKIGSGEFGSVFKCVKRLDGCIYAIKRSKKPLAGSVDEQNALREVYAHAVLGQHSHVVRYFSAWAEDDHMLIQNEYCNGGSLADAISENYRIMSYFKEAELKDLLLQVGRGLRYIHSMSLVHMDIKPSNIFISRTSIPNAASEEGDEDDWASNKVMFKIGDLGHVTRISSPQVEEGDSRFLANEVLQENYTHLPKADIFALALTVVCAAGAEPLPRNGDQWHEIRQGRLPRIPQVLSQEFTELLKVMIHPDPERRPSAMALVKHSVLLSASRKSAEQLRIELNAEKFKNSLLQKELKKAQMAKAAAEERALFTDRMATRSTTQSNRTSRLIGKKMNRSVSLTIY

[26] = target: T5, Sphingosine 1-phosphate receptor 4 (Homo sapiens, UniProt O95977); assay: Late-stage fluorescence-based dose-response cell-based counterscreen assay to identify agonists of the Sphingosine 1-Phosphate Receptor 3 (S1P3): Sphingosine 1-Phosphate Receptor 4 (S1P4) agonist assay.; assay type: functional
T5 sequence (O95977 whole entry): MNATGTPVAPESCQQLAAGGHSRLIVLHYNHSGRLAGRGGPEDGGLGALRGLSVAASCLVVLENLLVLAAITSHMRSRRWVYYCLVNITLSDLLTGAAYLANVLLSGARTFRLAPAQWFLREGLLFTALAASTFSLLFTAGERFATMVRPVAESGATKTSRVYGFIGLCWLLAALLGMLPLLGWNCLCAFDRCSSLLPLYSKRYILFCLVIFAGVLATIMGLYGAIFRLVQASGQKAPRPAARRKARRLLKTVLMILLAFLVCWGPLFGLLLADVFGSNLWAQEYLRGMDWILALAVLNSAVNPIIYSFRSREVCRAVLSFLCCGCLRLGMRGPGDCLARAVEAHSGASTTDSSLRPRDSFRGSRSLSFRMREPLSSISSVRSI

[27] = target: Sphingosine 1-phosphate receptor 2 (Homo sapiens, UniProt O95136); assay: Late-stage fluorescence-based dose-response cell-based counterscreen assay to identify agonists of the Sphingosine 1-Phosphate Receptor 3 (S1P3): Sphingosine 1-Phosphate Receptor 2 (S1P2) agonist assay.; assay type: functional
Sequence of Sphingosine 1-phosphate receptor 2 (O95136 whole entry): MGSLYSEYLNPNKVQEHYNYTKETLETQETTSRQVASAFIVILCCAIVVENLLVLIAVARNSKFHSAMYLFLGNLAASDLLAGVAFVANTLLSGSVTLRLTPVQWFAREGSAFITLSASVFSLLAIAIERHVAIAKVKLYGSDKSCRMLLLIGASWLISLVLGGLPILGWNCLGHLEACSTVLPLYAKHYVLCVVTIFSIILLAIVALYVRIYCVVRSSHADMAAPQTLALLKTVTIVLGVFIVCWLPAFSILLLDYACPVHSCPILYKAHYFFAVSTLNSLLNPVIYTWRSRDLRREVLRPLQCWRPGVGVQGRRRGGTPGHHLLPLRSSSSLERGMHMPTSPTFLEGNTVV

Compound: N#Cc1cccc(NC(=O)c2ccc([N+](=O)[O-])o2)c1
- IC50 (HEK293 [1]): 57.4 µM (inactive)
- IC50 (Jurkat): 18.1 µM (active)
- IC50 (HEK293 [2]): 32.9 µM (inactive)

Compound: O=C1CC(c2ccc(Cl)cc2)Cc2[nH]c3cc(Cl)ccc3c(=O)c21 (centres undefined)
- Ki [3]: 1.26 µM (active)
- Ki [4]: 1.58 µM (active)
- Ki [5]: 5.01 µM (active)
- Ki [6]: 6.31 µM (active)
- Ki (SRSF protein kinase 1): 6.31 µM (active)
- Ki [7]: 1.58 µM (active)

Compound: CC(C)CCNC(=O)CSc1nc2c(c(=O)[nH]1)CCCC2
- CC50 [8]: > 100 µM (inconclusive)

Compound: O=C(CCCCCCC(=NO)c1ncco1)Nc1cccc(-c2ccccc2)c1
- Ki [9]: > 5.01 µM (inactive)
- Ki (Aurora kinase A): > 2 µM (inactive)
- Ki (Aurora kinase B): 0.0251 µM (active)

Compound: O=C(/C=C/c1cccs1)N1CCC2(CC1)Oc1ccc(F)cc1C(=O)C21CC(c2ccccc2)=NO1 (centres undefined)
- EC50 [10]: 29.7 µM (active)

Compound: CCC1=[N+](CC(=O)c2ccc(C)cc2)CCn2c(C)ccc21
- EC50 [11]: 13 µM (active)
- EC50 [12]: > 120 µM (not active)
- EC50 (H4): 28.3 µM (active)

Compound: COc1ccc(S(=O)(=O)N(C)C[C@@H]2Oc3c(NC(=O)Nc4cccc(-c5ncccn5)c4)cccc3C(=O)N([C@@H](C)CO)C[C@H]2C)cc1
- AC50 (INS1): 98 µM (active)

Compound: O=C(c1ccc(Cl)cc1)N1CCN(c2ccnc3ccc(Cl)cc23)CC1
- AC50 (Candida albicans [13]): 9.92 µM (active)
- AC50 (Candida albicans [14]): < 0.8 µM (active)
- AC50 (Candida albicans [15]): 0.397 µM (active)
- AC50 (Candida albicans [16]): 1.47 µM (active)

Compound: O=C(NCCN1CCC2(CC1)C(=O)NCN2c1ccc(F)c(F)c1)c1cnc2ccccc2c1
- IC50 (Phospholipase D2 [17]): 0.069 µM (active)
- IC50 (Phospholipase D1): 5.48 µM (active)
- IC50 (Phospholipase D2 [18]): 0.2 µM (active)

Compound: Oc1cncc2nc(-c3ccncc3)ccc12
- Ki [19]: 0.501 µM (active)
- Ki [20]: > 100 µM (inactive)

Compound: O=C1c2ccccc2C(Nc2ccc(S(=O)(=O)N3CCCCCC3)cc2)N1c1ccccn1 (centres undefined)
- EC50 [21]: 19.3 µM (active)
- EC50 [22]: > 99 µM (inactive)
- EC50 [23]: 16.1 µM (active)
- CC50 (MEF): > 99 µM (inactive)
- EC50 [24]: > 99 µM (inactive)

Compound: N=C(N)Cc1cccc(-c2nc3ccccc3[nH]2)c1
- Ki [25]: 3.98 µM (active)
- Ki [5]: 5.01 µM (active)
- Ki (Aurora kinase B): 2.51 µM (active)

Compound: c1cc(NC2CCCCC2)nc(Nc2ccc3[nH]ncc3c2)n1
- Ki [19]: 0.2 µM (active)
- Ki (Wee1-like protein kinase): > 3.16 µM (inactive)

Compound: CC(C)Cc1cc(C(=O)N(C2CCCCC2)C2CCCCC2)no1
- EC50 [26]: > 50 µM (inactive)
- EC50 [27]: > 50 µM (inactive)
